From the supplement of paper PMC10307832

Assays:
Assay in all cases: relative viability (nuclei count vs DMSO), 5 days (fraction); higher = more cells survive
[1] = tested on: NCI-H2085
Outline: (§1)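 For relative viability, nuclei counts in treated wells were divided by those in vehicle wells. Lung cancer cell lines had been pin-tool dosed in 1536-well plates the day after seeding and cultured for 5 days, then fixed and stained in one step (final 0.05% Triton X-100, 1% formaldehyde, 1 ug/ml Hoechst) and imaged at 4×. Doses were one drug alone or a fixed anchor-drug dose plus five library-drug doses (not always all listed) in √10 steps, and values are duplicate-plate medians.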

[2] = tested on: NCI-H1975
Outline: as §1

[3] = tested on: NCI-H1437
Outline: as §1

[4] = tested on: LOU-NH91
Outline: as §1

[5] = tested on: NCI-H838
Outline: as §1

[6] = tested on: NCI-H2023
Outline: as §1

[7] = tested on: CAL-12T
Outline: as §1

[8] = tested on: NCI-H1650
Outline: as §1

[9] = tested on: NCI-H460
Outline: as §1

[10] = tested on: NCI-H1651
Outline: as §1

[11] = tested on: COR-L23
Outline: as §1

[12] = tested on: NCI-H1355
Outline: as §1

[13] = tested on: NCI-H441
Outline: as §1

[14] = tested on: SK-LU-1
Outline: as §1

[15] = tested on: NCI-H1734
Outline: as §1

[16] = tested on: HCC-366
Outline: as §1

[17] = tested on: LU99A
Outline: as §1

[18] = tested on: NCI-H1793
Outline: as §1

[19] = tested on: NCI-H358
Outline: as §1

[20] = tested on: NCI-H2342
Outline: as §1

[21] = tested on: BEN
Outline: as §1

For Nc1ccn([C@@H]2O[C@H](CO)[C@@H](O)[C@@H]2O)c(=O)n1 [Cytarabine] + O=C(CCCCCCC(=O)Nc1ccccc1)NO [Vorinostat] (partner 1 µM), the relative viability ([1]; first compound 0.005 µM) was 0.698, the relative viability ([1]; first compound 0.01581 µM) was 0.79 and the relative viability ([1]; first compound 0.05 µM) was 0.744. It also gave a relative viability ([1]; first compound 0.1581 µM) of 0.618, a relative viability ([1]; first compound 0.5 µM) of 0.635 and a relative viability ([2]; first compound 0.005 µM) of 0.572. For the same molecule, the relative viability ([2]; first compound 0.01581 µM) was 0.675, the relative viability ([2]; first compound 0.05 µM) was 0.568 and the relative viability ([2]; first compound 0.1581 µM) was 0.429. It also gave a relative viability ([2]; first compound 0.5 µM) of 0.287, a relative viability ([3]; first compound 0.005 µM) of 0.889 and a relative viability ([3]; first compound 0.01581 µM) of 0.77. For the same molecule, the relative viability ([3]; first compound 0.05 µM) was 0.605, the relative viability ([3]; first compound 0.1581 µM) was 0.423 and the relative viability ([3]; first compound 0.5 µM) was 0.303. It also gave a relative viability ([4]; first compound 0.005 µM) of 0.857, a relative viability ([4]; first compound 0.01581 µM) of 0.917 and a relative viability ([4]; first compound 0.05 µM) of 0.806. It also gave a relative viability ([4]; first compound 0.1581 µM) of 0.772, a relative viability ([4]; first compound 0.5 µM) of 0.676 and a relative viability ([5]; first compound 0.005 µM) of 0.715. The relative viability ([5]; first compound 0.01581 µM) was 0.651, the relative viability ([5]; first compound 0.05 µM) was 0.654 and the relative viability ([5]; first compound 0.1581 µM) was 0.515. It also gave a relative viability ([5]; first compound 0.5 µM) of 0.318, a relative viability ([6]; first compound 0.005 µM) of 0.434 and a relative viability ([6]; first compound 0.01581 µM) of 0.225. The relative viability ([6]; first compound 0.05 µM) was 0.22, the relative viability ([6]; first compound 0.1581 µM) was 0.101 and the relative viability ([6]; first compound 0.5 µM) was 0.0846. The relative viability ([7]; first compound 0.005 µM) was 0.53, the relative viability ([7]; first compound 0.01581 µM) was 0.68 and the relative viability ([7]; first compound 0.05 µM) was 0.739. It also gave a relative viability ([7]; first compound 0.1581 µM) of 0.477, a relative viability ([7]; first compound 0.5 µM) of 0.27 and a relative viability ([8]; first compound 0.005 µM) of 0.563. For the same molecule, the relative viability ([8]; first compound 0.01581 µM) was 0.514, the relative viability ([8]; first compound 0.05 µM) was 0.261 and the relative viability ([8]; first compound 0.1581 µM) was 0.241. For the same molecule, the relative viability ([8]; first compound 0.5 µM) was 0.226, the relative viability ([9]; first compound 0.005 µM) was 0.422 and the relative viability ([9]; first compound 0.01581 µM) was 0.436. For the same molecule, the relative viability ([9]; first compound 0.05 µM) was 0.259, the relative viability ([9]; first compound 0.1581 µM) was 0.0538 and the relative viability ([9]; first compound 0.5 µM) was 0.0412. The relative viability ([10]; first compound 0.005 µM) was 0.585, the relative viability ([10]; first compound 0.01581 µM) was 0.535 and the relative viability ([10]; first compound 0.05 µM) was 0.242. For the same molecule, the relative viability ([10]; first compound 0.1581 µM) was 0.489, the relative viability ([10]; first compound 0.5 µM) was 0.417 and the relative viability ([11]; first compound 0.005 µM) was 0.376. For the same molecule, the relative viability ([11]; first compound 0.01581 µM) was 0.404, the relative viability ([11]; first compound 0.05 µM) was 0.304 and the relative viability ([11]; first compound 0.1581 µM) was 0.136. The relative viability ([12]; first compound 0.005 µM) was 0.578, the relative viability ([12]; first compound 0.01581 µM) was 0.638 and the relative viability ([12]; first compound 0.05 µM) was 0.64. For the same molecule, the relative viability ([12]; first compound 0.1581 µM) was 0.458, the relative viability ([12]; first compound 0.5 µM) was 0.299 and the relative viability ([13]; first compound 0.005 µM) was 0.527. For the same molecule, the relative viability ([13]; first compound 0.01581 µM) was 0.882, the relative viability ([13]; first compound 0.05 µM) was 0.852 and the relative viability ([13]; first compound 0.1581 µM) was 0.398. It also gave a relative viability ([13]; first compound 0.5 µM) of 0.229, a relative viability ([14]; first compound 0.005 µM) of 0.509 and a relative viability ([14]; first compound 0.01581 µM) of 0.665. For the same molecule, the relative viability ([14]; first compound 0.05 µM) was 0.632, the relative viability ([14]; first compound 0.1581 µM) was 0.479 and the relative viability ([14]; first compound 0.5 µM) was 0.422. The relative viability ([15]; first compound 0.005 µM) was 0.493, the relative viability ([15]; first compound 0.01581 µM) was 0.361 and the relative viability ([15]; first compound 0.05 µM) was 0.317. It also gave a relative viability ([15]; first compound 0.1581 µM) of 0.138, a relative viability ([15]; first compound 0.5 µM) of 0.125 and a relative viability ([16]; first compound 0.005 µM) of 0.31. The relative viability ([16]; first compound 0.01581 µM) was 0.347, the relative viability ([16]; first compound 0.05 µM) was 0.301 and the relative viability ([16]; first compound 0.1581 µM) was 0.087. The relative viability ([16]; first compound 0.5 µM) was 0.0576, the relative viability ([17]; first compound 0.005 µM) was 0.451 and the relative viability ([17]; first compound 0.01581 µM) was 0.468. The relative viability ([17]; first compound 0.05 µM) was 0.554, the relative viability ([17]; first compound 0.1581 µM) was 0.455 and the relative viability ([17]; first compound 0.5 µM) was 0.375. The relative viability ([18]; first compound 0.005 µM) was 0.631, the relative viability ([18]; first compound 0.01581 µM) was 0.607 and the relative viability ([18]; first compound 0.05 µM) was 0.643. It also gave a relative viability ([18]; first compound 0.1581 µM) of 0.352, a relative viability ([18]; first compound 0.5 µM) of 0.186 and a relative viability ([19]; first compound 0.005 µM) of 0.632. For the same molecule, the relative viability ([19]; first compound 0.01581 µM) was 0.557, the relative viability ([19]; first compound 0.05 µM) was 0.538 and the relative viability ([19]; first compound 0.1581 µM) was 0.178. It also gave a relative viability ([19]; first compound 0.5 µM) of 0.113, a relative viability ([20]; first compound 0.005 µM) of 0.718 and a relative viability ([20]; first compound 0.01581 µM) of 0.698. For the same molecule, the relative viability ([20]; first compound 0.05 µM) was 0.657, the relative viability ([20]; first compound 0.1581 µM) was 0.52 and the relative viability ([20]; first compound 0.5 µM) was 0.465. It also gave a relative viability ([21]; first compound 0.005 µM) of 0.553, a relative viability ([21]; first compound 0.01581 µM) of 0.56 and a relative viability ([21]; first compound 0.05 µM) of 0.447. The relative viability ([21]; first compound 0.1581 µM) was 0.394 and the relative viability ([21]; first compound 0.5 µM) was 0.364.
